Measurements taken from patent US20220323406A1, “METHODS AND COMPOSITIONS FOR DIFFERENTIATING STEM CELLS” (Massachusetts Institute of Technology, priority 2019, published 2022).
Where a name gives a salt, the structure may show the parent alone.

Key:
ENR+CD organoids = assay: Primary screen: ATP (CellTiter-Glo 3D, CTG) cell number/viability, 2.5-D 384-well ENR+CD organoids; settings: primary screen; for Z.CTG: standard z score;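 as to all read-outs here: compounds given at plating and again on day 3 over a 6-day differentiation from ENR+CV stem-cell-enriched precursors, ATP measured on day 6, plate median as control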
[1] = system: ENR+CD organoids (ISC to Paneth cell differentiation); assay: Primary screen: basal (non-stimulated) lysozyme secretion LYZ.NS, 2.5-D 384-well ENR+CD organoid differentiation; assay type: cell-based, mouse
Source text: (§1) High-throughput screening.

[2] = system: ENR+CD organoids (ISC to Paneth cell differentiation); assay: Primary screen: CCh-stimulated lysozyme secretion LYZ.S, 2.5-D 384-well ENR+CD organoid differentiation; assay type: cell-based, mouse; settings: primary screen
Source text: as §1

[3] = dose 0.08 uM, FC relative to plate median
[4] = dose 0.40 uM, FC relative to plate median
[5] = dose 2.00 uM, FC relative to plate median
[6] = dose 10.00 uM, FC relative to plate median
[7] = primary screen, dose 0.08 uM, standard z score
[8] = primary screen, dose 0.40 uM, standard z score
[9] = primary screen, dose 2.00 uM, standard z score
[10] = primary screen, dose 10.00 uM, standard z score
[11] = dose 0.08 uM, FC vs plate median
[12] = dose 0.40 uM, FC vs plate median
[13] = dose 2.00 uM, FC vs plate median
[14] = dose 10.00 uM, FC vs plate median

C[S+]([O-])c1ccc(-c2nc(-c3ccc(F)cc3)c(-c3ccncc3)[nH]2)cc1 (stereo not drawn) [SB203580]
Dose.FC.CTG (ENR+CD organoids; [3]): 0.201 log2 fold change
Z.CTG (ENR+CD organoids; dose 0.08 uM): 0.479
Dose.FC.CTG (ENR+CD organoids; [4]): 0.149 log2 fold change
Z.CTG (ENR+CD organoids; dose 0.40 uM): 0.356
Dose.FC.CTG (ENR+CD organoids; [5]): 0.237 log2 fold change
Z.CTG (ENR+CD organoids; dose 2.00 uM): 0.567
Dose.FC.CTG (ENR+CD organoids; [6]): 0.182 log2 fold change
Z.CTG (ENR+CD organoids; dose 10.00 uM): 0.435
Dose.FC.LYZ.NS ([1]; primary screen, dose 0.08 uM, FC relative to plate median): 0.092 log2 fold change
Z.LYZ.NS [1, 7]: 0.805
Dose.FC.LYZ.NS ([1]; primary screen, dose 0.40 uM, FC relative to plate median): 0.127 log2 fold change
Z.LYZ.NS [1, 8]: 1.109
Dose.FC.LYZ.NS ([1]; primary screen, dose 2.00 uM, FC relative to plate median): 0.052 log2 fold change
Z.LYZ.NS [1, 9]: 0.453
Dose.FC.LYZ.NS ([1]; primary screen, dose 10.00 uM, FC relative to plate median): 0.023 log2 fold change
Z.LYZ.NS [1, 10]: 0.199
Dose.FC.LYZ.S [2, 3]: 0.148 log2 fold change
Dose.FC.LYZ.S [2, 4]: 0.098 log2 fold change
Dose.FC.LYZ.S [2, 5]: 0.077 log2 fold change
Dose.FC.LYZ.S [2, 6]: 0.069 log2 fold change

COCCOc1ccc2c(c1)ncn2-c1ccc2cccc(N3CCC(N)CC3)c2n1 [CP-673451]
Dose.FC.CTG (ENR+CD organoids; dose 0.08 uM): 0.069 log2 fold change
Dose.FC.CTG (ENR+CD organoids; dose 0.40 uM): 0.186 log2 fold change
Dose.FC.CTG (ENR+CD organoids; dose 2.00 uM): 0.008 log2 fold change
Dose.FC.CTG (ENR+CD organoids; dose 10.00 uM): −0.258 log2 fold change
Dose.FC.LYZ.NS ([1]; primary screen, dose 0.08 uM): 0.031 log2 fold change
Dose.FC.LYZ.NS ([1]; primary screen, dose 0.40 uM): 0.066 log2 fold change
Dose.FC.LYZ.NS ([1]; primary screen, dose 2.00 uM): 0.102 log2 fold change
Dose.FC.LYZ.NS ([1]; primary screen, dose 10.00 uM): −0.058 log2 fold change
Z.LYZ.NS ([1]; primary screen, standard z score, dose 0.08 uM): 0.274
Z.LYZ.NS ([1]; primary screen, standard z score, dose 0.40 uM): 0.577
Z.LYZ.NS ([1]; primary screen, standard z score, dose 2.00 uM): 0.886
Z.LYZ.NS ([1]; primary screen, standard z score, dose 10.00 uM): −0.508
Dose.FC.LYZ.S ([2]; dose 0.08 uM): 0.096 log2 fold change
Dose.FC.LYZ.S ([2]; dose 0.40 uM): −0.046 log2 fold change
Dose.FC.LYZ.S ([2]; dose 2.00 uM): 0.080 log2 fold change
Dose.FC.LYZ.S ([2]; dose 10.00 uM): −0.147 log2 fold change

S=C=Nc1cccc(NC(=S)NCCCCNC(=S)Nc2cccc(N=C=S)c2)c1 [MRS 2578]
Z.CTG (ENR+CD organoids; dose 0.08 uM): −0.339
Z.CTG (ENR+CD organoids; dose 0.40 uM): 0.146
Z.CTG (ENR+CD organoids; dose 2.00 uM): −0.381
Z.CTG (ENR+CD organoids; dose 10.00 uM): −0.544
Dose.FC.CTG (ENR+CD organoids; [11]): −0.142 log2 fold change
Dose.FC.CTG (ENR+CD organoids; [12]): 0.061 log2 fold change
Dose.FC.CTG (ENR+CD organoids; [13]): −0.159 log2 fold change
Dose.FC.CTG (ENR+CD organoids; [14]): −0.228 log2 fold change
Z.LYZ.NS [1, 7]: 1.011
Z.LYZ.NS [1, 8]: 0.311
Z.LYZ.NS [1, 9]: 0.270
Z.LYZ.NS [1, 10]: 0.276
Dose.FC.LYZ.NS ([1]; primary screen; dose 0.08 uM; FC vs plate median): 0.116 log2 fold change
Dose.FC.LYZ.NS ([1]; primary screen; dose 0.40 uM; FC vs plate median): 0.036 log2 fold change
Dose.FC.LYZ.NS ([1]; primary screen; dose 2.00 uM; FC vs plate median): 0.031 log2 fold change
Dose.FC.LYZ.NS ([1]; primary screen; dose 10.00 uM; FC vs plate median): 0.032 log2 fold change
Dose.FC.LYZ.S [2, 11]: 0.095 log2 fold change
Dose.FC.LYZ.S [2, 12]: 0.067 log2 fold change
Dose.FC.LYZ.S [2, 13]: 0.023 log2 fold change
Dose.FC.LYZ.S [2, 14]: 0.013 log2 fold change

CC12CC3CC(C)(C1)CC(N)(C3)C2 [Memantine HCl]
Dose.FC.CTG (log2 fold change) (ENR+CD organoids; dose 0.08 uM): 0.083
Dose.FC.CTG (log2 fold change) (ENR+CD organoids; dose 0.40 uM): 0.072
Dose.FC.CTG (log2 fold change) (ENR+CD organoids; dose 2.00 uM): −0.007
Dose.FC.CTG (log2 fold change) (ENR+CD organoids; dose 10.00 uM): 0.077
Dose.FC.LYZ.NS (log2 fold change) ([1]; primary screen, dose 0.08 uM): 0.069
Z.LYZ.NS (standard z score) ([1]; primary screen, dose 0.08 uM): 0.598
Dose.FC.LYZ.NS (log2 fold change) ([1]; primary screen, dose 0.40 uM): 0.004
Z.LYZ.NS (standard z score) ([1]; primary screen, dose 0.40 uM): 0.032
Dose.FC.LYZ.NS (log2 fold change) ([1]; primary screen, dose 2.00 uM): 0.106
Z.LYZ.NS (standard z score) ([1]; primary screen, dose 2.00 uM): 0.919
Dose.FC.LYZ.NS (log2 fold change) ([1]; primary screen, dose 10.00 uM): −0.047
Z.LYZ.NS (standard z score) ([1]; primary screen, dose 10.00 uM): −0.411
Dose.FC.LYZ.S (log2 fold change) ([2]; dose 0.08 uM): 0.091
Dose.FC.LYZ.S (log2 fold change) ([2]; dose 0.40 uM): 0.017
Dose.FC.LYZ.S (log2 fold change) ([2]; dose 2.00 uM): 0.051
Dose.FC.LYZ.S (log2 fold change) ([2]; dose 10.00 uM): −0.021
